# Literature values in US20110166112A1, “METHOD FOR STIMULATING PLATELET PRODUCTION” (Eisai, Inc., priority 2009, published 2011).
# Tested on: subjects
# Details: in eight days; cited from earlier work
smiles,measurement,value
CC1=NN(c2ccc(C)c(C)c2)C(=O)/C1=N\Nc1cccc(-c2cccc(C(=O)O)c2)c1O.NCCO.NCCO [Promacta®],"subjects who achieved a platelet response of 50,000/mm^3",44-62%
